Data published in paper PMC8552062, “Contributions of UDP-Glucuronosyltransferases to Human Hepatic and Intestinal Metabolism of Ticagrelor and Inhibition of UGTs and Cytochrome P450 Enzymes by Ticagrelor and its Glucuronidated Metabolite” (Frontiers in Pharmacology, 2021).

Columns and labels:
[1] = target: T1, CYP3A4 (Homo sapiens, UniProt P08684); assay: CYP3A4 inhibition in HLM (testosterone 6β-hydroxylase); format: in vitro ADME; conditions: human liver microsomes, pH 7.4, probe testosterone (80 μM), 6β-hydroxy testosterone formation
T1 construct: co-incubation ticagrelor-O-Glu with selective P450 probe substrates in HLM; tissue XenoTech LLC; host or cells: pooled human liver microsomes
T1 sequence (P08684 whole entry): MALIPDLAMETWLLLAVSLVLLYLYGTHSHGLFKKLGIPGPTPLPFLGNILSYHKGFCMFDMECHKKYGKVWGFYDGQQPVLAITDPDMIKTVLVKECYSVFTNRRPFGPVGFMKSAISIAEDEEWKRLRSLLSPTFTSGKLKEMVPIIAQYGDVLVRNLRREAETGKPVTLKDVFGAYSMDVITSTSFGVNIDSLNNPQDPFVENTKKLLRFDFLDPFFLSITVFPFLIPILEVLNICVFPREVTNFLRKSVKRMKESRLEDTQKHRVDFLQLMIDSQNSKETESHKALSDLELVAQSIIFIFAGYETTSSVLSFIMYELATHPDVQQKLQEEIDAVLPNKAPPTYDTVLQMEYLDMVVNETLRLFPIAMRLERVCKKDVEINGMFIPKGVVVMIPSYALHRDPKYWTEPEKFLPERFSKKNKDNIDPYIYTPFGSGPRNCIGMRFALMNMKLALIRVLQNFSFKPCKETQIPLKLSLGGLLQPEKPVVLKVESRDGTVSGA
Method: The potential inhibitory effects of ticagrelor-O-Glu on the activities of major CYPs, i.e., CYP2B6, CYP2C8, CYP2C9, CYP2C19, CYP2D6, and CYP3A4, were evaluated by co-incubation ticagrelor-O-Glu with selective P450 probe substrates in HLM. Each incubation mixture containing 0.2 mg/ml HLM, ticagrelor-O-Glu and respective substrate (the final substrate concentrations are close to or less than the Km values: 150 μM bupropion, 1.26 μM amodiaquine, 10 μM diclofenac, 20 μM mephenytoin, 20 μM dextromethorphan and 80 μM testosterone (in house data)) in potassium phosphate buffer (100 mM, pH 7.4) was pre-incubated at 37°C for 5 min. Then, NADPH (10 mM) was added to initiate the reaction. The final volume of the incubation mixture was 100 μl. After incubation at 37°C for specific time points, the reaction was terminated by the addition of 200 μl of ice-cold methanol solution with internal standards (diazepam and furafylline). […] The formation of respective metabolites was determined to reflect P450 isoform activities. The metabolites quantified for CYP2B6, CYP2C8, CYP2C9, CYP2C19, CYP2D6, and CYP3A4 were hydroxy bupropion, N-Desethyl amodiaquine, 4′-hydroxylation diclofenac, S-4-hydroxy mephenytoin, dextrorphan and 6β-hydroxy testosterone, respectively.
The percent inhibition relative to the control was calculated to indicate the UGTs or CYPs inhibition. […]

[2] = target: T2, UGT1A4 (Homo sapiens, UniProt P22310); assay: Ticagrelor glucuronidation by recombinant human UGT1A4; format: in vitro ADME; design: purchased BD Gentest; host or cells: baculovirus-infected insect cells; conditions: recombinant human UGT1A4, pH 7.4
T2 sequence (P22310 29-534): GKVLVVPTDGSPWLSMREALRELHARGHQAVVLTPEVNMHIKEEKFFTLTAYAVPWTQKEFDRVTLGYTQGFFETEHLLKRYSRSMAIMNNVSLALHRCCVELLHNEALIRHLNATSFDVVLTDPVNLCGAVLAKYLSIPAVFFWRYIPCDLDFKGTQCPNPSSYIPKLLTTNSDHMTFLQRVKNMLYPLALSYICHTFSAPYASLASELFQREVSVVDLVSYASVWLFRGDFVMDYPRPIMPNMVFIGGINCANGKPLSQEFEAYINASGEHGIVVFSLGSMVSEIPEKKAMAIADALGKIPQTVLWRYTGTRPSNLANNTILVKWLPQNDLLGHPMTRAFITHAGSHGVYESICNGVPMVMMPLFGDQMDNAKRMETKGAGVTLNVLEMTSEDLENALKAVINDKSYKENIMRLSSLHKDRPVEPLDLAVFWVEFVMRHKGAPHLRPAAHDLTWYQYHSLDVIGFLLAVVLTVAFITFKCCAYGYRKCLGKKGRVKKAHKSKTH
Method: Ticagrelor glucuronidation was investigated in an in vitro incubation system by using HLM, HIM, and recombinant human UGTs. The incubation system consisted of enzyme sources (HLM, HIM, or human recombinant UGTs), various concentrations of ticagrelor (dissolved in 50% methanol, 1% v/v, 1, 2, 5, 10, 20, 50, 100, 200, 500 μM of final concentration), alamethicin (50 μg/mg protein), 5 mM MgCl2, 100 mM tris-HCL buffer (pH 7.4), and 5 mM UDPGA in a total volume of 100 μl. Alamethicin is a pore-forming polypeptide used to activate UGTs in HLM and HIM ([Fisher et al., 2000]). Preliminary studies were conducted to determine the optimal protein concentrations and incubation times. Linear conditions of ticagrelor-O-Glu formation from ticagrelor, i.e., HLM, 0.2 mg of protein/ml and 60 min, HIM, 0.2 mg of protein/ml and 60 min, and recombinant human UGTs, 0.2 mg of protein/ml and 60 min were selected. The incubation mixture without UDPGA was placed on ice for 15 min to activate UGT by alamethicin. […]
Kinetic analyses were performed using the mean values of triplicate determinations with either pooled HLM, HIM, or recombinant human UGTs. All data were analyzed by nonlinear regression analysis using the GraphPad Prism 6 (GraphPad Software Inc., CA, United States). […] Intrinsic clearance (CLint) was calculated by dividing Vmax by Km.

| IC50 ([1]; CYP3A4, testosterone 6β-hydroxylase, HLM 0.2 mg/ml) | inhibition at 100 µM ([1]; HLM, 100 μM ticagrelor-O-Glu, read-out: inhibition of CYP3A4 enzyme activity) | microsomal CLint [2] | Structure (SMILES) |
| --- | --- | --- | --- |
| > 100 µM | 57.1% |  | CCCSc1nc(N[C@@H]2C[C@H]2c2ccc(F)c(F)c2)c2nnn([C@@H]3C[C@H](OCCO[C@@H]4O[C@H](C(=O)O)[C@@H](O)[C@H](O)[C@H]4O)[C@@H](O)[C@H]3O)c2n1 [Ticagrelor-O-Glu, ticagrelor-O-glucuronide] |
|  |  | 0.04 µL/min/mg | CCCSc1nc(N[C@@H]2C[C@H]2c2ccc(F)c(F)c2)c2nnn([C@@H]3C[C@H](OCCO)[C@@H](O)[C@H]3O)c2n1 [Ticagrelor] |
